Assay results: the supplement of paper PMC10307832

Tests used:
Test in all cases: relative viability (nuclei count vs DMSO), 5 days (fraction); higher = more cells survive
[1] = compound: CS(=O)(=O)N1CCN(Cc2cc3nc(-c4cccc5[nH]ncc45)nc(N4CCOCC4)c3s2)CC1 [Pictilisib] + Cc1cc(Nc2cc(N3CCN(C)CC3)nc(Sc3ccc(NC(=O)C4CC4)cc3)n2)n[nH]1 [Tozasertib] (partner 0.1 µM)
Summary of the method: (§1)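 The day after seeding in 1536-well plates, lung cancer cell lines were treated by pin tool with a single drug, or with a fixed anchor-drug dose together with five library-drug doses (not always all listed) in √10 steps. After 5 days, a combined fix-and-stain solution (final 0.05% Triton X-100, 1% formaldehyde, 1 ug/ml Hoechst) was added. Nuclei counted on 4× images gave relative viability as treated counts over vehicle counts, reported as the median of duplicate plates.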

[2] = compound: NC1(c2ccc(-c3nc4ccn5c(=O)[nH]nc5c4cc3-c3ccccc3)cc2)CCC1 [MK-2206] + CCNC(=O)c1noc(-c2cc(C(C)C)c(O)cc2O)c1-c1ccc(CN2CCOCC2)cc1 [Luminespib] (partner 0.01 µM)
Summary of the method: as §1

[3] = compound: NC1(c2ccc(-c3nc4ccn5c(=O)[nH]nc5c4cc3-c3ccccc3)cc2)CCC1 [MK-2206] + Cc1nc(Nc2ncc(C(=O)Nc3c(C)cccc3Cl)s2)cc(N2CCN(CCO)CC2)n1 [Dasatinib] (partner 0.075 µM)
Summary of the method: as §1

[4] = compound: CS(=O)(=O)N1CCN(Cc2cc3nc(-c4cccc5[nH]ncc45)nc(N4CCOCC4)c3s2)CC1 [Pictilisib] + O=C(c1cc(Cc2n[nH]c(=O)c3ccccc23)ccc1F)N1CCN(C(=O)C2CC2)CC1 [Olaparib] (partner 8 µM)
Summary of the method: as §1

[5] = compound: NC1(c2ccc(-c3nc4ccn5c(=O)[nH]nc5c4cc3-c3ccccc3)cc2)CCC1 [MK-2206] + Cc1nc(NC(=O)N2CCC[C@H]2C(N)=O)sc1-c1ccnc(C(C)(C)C(F)(F)F)c1 [Alpelisib] (partner 2 µM)
Summary of the method: as §1

Cell Line	relative viability ([1]; first compound 0.02 µM)	relative viability ([1]; first compound 0.06325 µM)	relative viability ([1]; first compound 0.6325 µM)	relative viability ([1]; first compound 2 µM)	relative viability ([2]; first compound 0.01 µM)	relative viability ([2]; first compound 0.03162 µM)	relative viability ([2]; first compound 0.3162 µM)	relative viability ([2]; first compound 1 µM)	relative viability ([3]; first compound 0.01 µM)	relative viability ([3]; first compound 0.03162 µM)	relative viability ([3]; first compound 0.3162 µM)	relative viability ([3]; first compound 1 µM)	relative viability ([4]; first compound 0.02 µM)	relative viability ([4]; first compound 0.06325 µM)	relative viability ([4]; first compound 0.6325 µM)	relative viability ([4]; first compound 2 µM)	relative viability ([5]; first compound 0.01 µM)	relative viability ([5]; first compound 0.03162 µM)	relative viability ([5]; first compound 0.3162 µM)	relative viability ([5]; first compound 1 µM)
EKVX	0.369	0.324	0.317	0.215	0.991	0.872	0.801	0.69	0.73	0.522	0.536	0.569	0.962	0.828	0.777	0.406	0.761	0.904	0.843	0.82
NCI-H2085	0.765	0.733	0.52	0.3	0.508	0.393	0.489	0.384	0.257	0.234	0.253	0.242	0.764	0.823	0.586	0.353	0.928	0.914	0.807	0.702
NCI-H3122	0.323	0.311	0.321	0.142	0.118	0.1	0.0816	0.084	0.801	0.789	0.84	0.118	0.603	0.659	0.595	0.329	0.737	0.659	0.677	0.636
HCC-827	0.436	0.441	0.312	0.2	0.638	0.723	0.421	0.636	0.476	0.272	0.258	0.362	0.795	0.512	0.433	0.284	1.07	1.05	0.821	0.816
HARA	0.127	0.107	0.0682	0.0525	0.798	1.06	0.77	0.839	0.321	0.302	0.329	0.227	0.837	0.97	0.92	0.358	0.789	0.745	0.611	0.582
NCI-H441	0.654	0.542	0.527	0.289	0.31	0.409	0.271	0.262	0.566	0.503	0.501	0.422	0.653	0.606	0.493	0.346	0.697	0.742	0.453	0.661
SK-MES-1	1	0.982	0.822	0.649	0.901	0.756	0.751	0.751	0.396	0.437	0.356	0.425	0.881	0.654	0.474	0.296	0.882	1.05	0.786	0.851
HCC-15	0.37	0.379	0.275	0.153	0.404	0.232	0.413	0.292	0.578	0.643	0.442	0.422	0.758	0.772	0.638	0.504	0.836	0.884	0.859	0.832
